pEC50, pIC50: −log10 of the molar value. Like-named read-outs stand apart in the source and are kept apart here.
What was measured:
Format in all cases: cell-based
[1] = system: SKBR3 cells express WT PI3Ka; assay: In vitro cell proliferation, SKBR3 cells (CellTiter-Glo); settings: inhibition of proliferation
Procedure, shortened: (§1)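 1,500 cells/well seeded onto pre-stamped 10-pt dilution plates; T47D in RPMI + 10% FBS + insulin 0.2 units/mL, SKBR3 in McCoys 5a + 10% FBS. 72 h, 37 °C, 5% CO2. CTG readout. 0% = 0.1% DMSO, 100% = 10 uM Alpelisib; sigmoidal fit gives EC50.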

[2] = system: T47D cells expressing mutant PI3Ka (H1047R); assay: In vitro cell proliferation, T47D cells (CellTiter-Glo); settings: inhibition of proliferation, read-out: Avg T-47D EC50
Procedure, shortened: as §1

[3] = system: phosphorylation of AKT (pAKT) in T47D cells expressing mutant PI3Ka (H1047R); assay: In vitro cell pAKT (Ser473) HTRF, T47D cells; settings: cellular pAKT, T47D cells, mutant PI3Ka (H1047R), 6 hours, read-out: Avg T-47D IC50
Procedure, shortened: (§2)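 Cells seeded on plates pre-stamped with 10-point compound dilutions, then grown 6 h at 37 °C (T47D in RPMI/10% FBS/insulin; SKBR3 in McCoy's 5a/10% FBS). Lysates read for pAKT Ser473 by HTRF after overnight antibody incubation. Inhibition normalised to 0.1% DMSO and 10 uM alpelisib; IC50 by four-parameter fit.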

[4] = system: phosphorylation of AKT (pAKT) in SKBR3 cells express WT PI3Ka; assay: In vitro cell pAKT (Ser473) HTRF, SKBR3 cells; settings: cellular pAKT
Procedure, shortened: as §2

| Structure (SMILES) | pEC50 ([1]; Homo sapiens, SK-BR-3, 72 h) | pEC50 ([2]; Homo sapiens, T47D, 72 h) | pIC50 ([3]; Homo sapiens, T47D, 6 h) | pIC50 ([4]; Homo sapiens, SK-BR-3, 6 h) | pEC50 ([1]; 72 hours) | pEC50 ([2]; 72 hours) | pIC50 [3] | pIC50 ([4]; 6 hours) |
| --- | --- | --- | --- | --- | --- | --- | --- | --- |
| Cc1cc([C@@H](C)Nc2ccc(Cl)c(F)c2C(=O)O)c2cc(N3CCN(CC(F)(F)F)CC3)n(C)c(=O)c2c1 [Example 327] |  |  |  |  | < 4.82 | 5.70 to 6.30 | 5.70 to 6.30 | 4.82 to 5.70 |
| Cc1cc([C@@H](C)Nc2cnsc2C(=O)O)c2cc(N3CCN(CC(F)(F)F)CC3)n(C)c(=O)c2c1 [Example 274] | < 4.82 | 4.82 to 5.70 | 4.82 to 5.70 | < 4.82 |  |  |  |  |
| Cc1cc(C(C)Nc2ccccc2C(=O)O)c2cc(N3CCN4CCC[C@H]4C3)n(C)c(=O)c2c1 (single isomer, unassigned) [Example 139] |  |  |  |  | < 4.82 | 5.70 to 6.30 | 5.70 to 6.30 | < 4.82 |
| Cc1cc(C(CF)Nc2ccccc2C(=O)O)c2cc(N3CCN(CC(F)(F)F)CC3)n(C)c(=O)c2c1 (single isomer, unassigned) [Example 37, 2-((1-(2,7-dimethyl-1-oxo-3-(4-(2,2,2-trifluoroethyl)piperazin-1-yl)-1,2-dihydroisoquinolin-5-yl)-2-fluoroethyl)amino)benzoic acid] | < 4.82 |  |  | < 4.82 |  | 4.82 to 5.70 | 4.82 to 5.70 |  |
| Cc1cc(C(C)Nc2ccccc2C(=O)O)c2cc(N3CCC4(CCN(CC(F)(F)F)CC4)CC3)n(C)c(=O)c2c1 (single isomer, unassigned) [Example 111] |  |  |  |  | 4.82 to 5.70 | 6.30 to 9.00 | 6.30 to 9.00 | 4.82 to 5.70 |
| Cc1cc(C(C)Nc2ccc(Cl)nc2C(=O)O)c2cc(C3=CCC(C)(C)CC3)n(C)c(=O)c2c1 (single isomer, unassigned) [Example 22, 6-chloro-3-((1-(3-(4,4-dimethylcyclohex-1-en-1-yl)-2,7-dimethyl-1-oxo-1,2-dihydroisoquinolin-5-yl)ethyl)amino)picolinic acid] | 4.82 to 5.70 |  |  | < 4.82 |  | 4.82 to 5.70 | 4.82 to 5.70 |  |
| C[C@@H](Nc1cccc(F)c1C(=O)O)c1cc(F)cc2c(=O)n(C)c(N3CCN(c4nccs4)CC3)cc12 [Example 429] | < 4.82 | 6.30 to 9.00 | 6.30 to 9.00 | < 4.82 |  |  |  |  |
| Cc1cc([C@@H](C)Nc2cccc(F)c2C(=O)O)c2cc(N3CCN(c4cc(C)ncn4)CC3)n(C)c(=O)c2c1 [Example 328] | 4.82 to 5.70 | 5.70 to 6.30 | 5.70 to 6.30 | < 4.82 |  |  |  |  |
| CC(=O)N1CCC2(CC1)CCN(c1cc3c(C(C)Nc4ccccc4C(=O)O)cc(C)cc3c(=O)n1C)CC2 (single isomer, unassigned) [Example 136] |  |  |  |  | 4.82 to 5.70 | 6.30 to 9.00 | 6.30 to 9.00 | 4.82 to 5.70 |

Second part, the compound after the results:

| pEC50 ([1]; Homo sapiens, SK-BR-3, 72 h) | pEC50 ([2]; Homo sapiens, T47D, 72 h) | pIC50 ([3]; Homo sapiens, T47D, 6 h) | pIC50 ([4]; Homo sapiens, SK-BR-3, 6 h) | pEC50 ([1]; 72 hours) | pEC50 ([2]; 72 hours) | pIC50 [3] | pIC50 ([4]; 6 hours) | Structure (SMILES) |
| --- | --- | --- | --- | --- | --- | --- | --- | --- |
| < 4.82 | 6.30 to 9.00 | 6.30 to 9.00 | < 4.82 |  |  |  |  | Cc1cc([C@@H](C)Nc2ccccc2C(=O)O)c2cc(-c3ccc(C(C)C)nc3)n(C)c(=O)c2c1 [Example 226] |
| < 4.82 | 6.30 to 9.00 | 6.30 to 9.00 | < 4.82 |  |  |  |  | Cc1cc([C@@H](C)Nc2ccccc2C(=O)O)c2cc(-c3cnc(C(C)(F)F)c(F)c3)n(C)c(=O)c2c1 [Example 291] |
| < 4.82 | 6.30 to 9.00 | 6.30 to 9.00 | < 4.82 |  |  |  |  | C[C@@H](Nc1ccccc1C(=O)O)c1cc(F)cc2c(=O)n(C)c(-c3ccc(OC4CC4)nc3)cc12 [Example 497] |
| < 4.82 | 6.30 to 9.00 | 6.30 to 9.00 | < 4.82 |  |  |  |  | COc1ncc(-c2c(F)c3c([C@@H](C)Nc4ccccc4C(=O)O)cc(F)cc3c(=O)n2C)s1 [Example 581] |
| < 4.82 | 6.30 to 9.00 | 6.30 to 9.00 |  |  |  |  | 4.82 to 5.70 | Cc1cc([C@@H](C)Nc2ccccc2C(=O)O)c2cc(C3C[C@H]3C3CC3)n(C)c(=O)c2c1 (single isomer, unassigned) [Example 309] |
|  |  |  |  | < 4.82 | 6.30 to 9.00 | 6.30 to 9.00 | < 4.82 | Cc1cc(C(C)Nc2ccccc2C(=O)O)c2cc(N3Cc4ccncc4C3)n(C)c(=O)c2c1 (single isomer, unassigned) [Example 107] |
